Results published in publication PMC9097471, “Development of Selective Phosphatidylinositol 5-Phosphate 4-Kinase γ Inhibitors with a Non-ATP-competitive, Allosteric Binding Mode” (Journal of Medicinal Chemistry, 2022).
In brackets after ≈: the same amount, converted by molar mass. Read-outs that look alike come from different tables or passages of the source.

Key:
PI5P4Kβ-WT = target: T1, PI5P4Kβ-WT (Homo sapiens, UniProt P78356); experiment: ADP-Glo inhibition assay; settings: ADP-Glo
T1 sequence (P78356 1-416): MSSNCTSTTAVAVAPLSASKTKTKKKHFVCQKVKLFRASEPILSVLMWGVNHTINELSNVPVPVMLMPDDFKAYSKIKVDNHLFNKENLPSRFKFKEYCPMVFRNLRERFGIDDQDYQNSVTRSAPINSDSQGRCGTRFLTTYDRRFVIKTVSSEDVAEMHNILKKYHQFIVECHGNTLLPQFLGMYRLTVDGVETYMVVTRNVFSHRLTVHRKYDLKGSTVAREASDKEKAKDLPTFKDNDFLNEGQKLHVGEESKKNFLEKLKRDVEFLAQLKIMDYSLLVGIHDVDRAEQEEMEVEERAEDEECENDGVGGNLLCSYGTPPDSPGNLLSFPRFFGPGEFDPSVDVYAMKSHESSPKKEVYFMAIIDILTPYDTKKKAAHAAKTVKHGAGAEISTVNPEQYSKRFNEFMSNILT
Excerpt: (§2) To enable direct comparisons, Promega’s ADP-Glo reporter assay was developed using a mutant form of the kinase. […] To mitigate concerns about being misled by the use of the PI5P4Kγ+ construct and the possible introduction of PI5P4Kα activity into the molecules, our screening cascade included the measurement of ADP-Glo activity at PI5P4Kα-WT (and PI5P4Kβ-WT to fully understand emerging selectivity profiles).

PI5P4Kγ-WT [1] = target: T2, PI5P4Kγ-WT (Homo sapiens, UniProt Q8TBX8); experiment: InCell Pulse cellular target engagement (thermal stabilisation) in HEK293 cells; assay type: cell-based
T2 sequence (Q8TBX8 1-421): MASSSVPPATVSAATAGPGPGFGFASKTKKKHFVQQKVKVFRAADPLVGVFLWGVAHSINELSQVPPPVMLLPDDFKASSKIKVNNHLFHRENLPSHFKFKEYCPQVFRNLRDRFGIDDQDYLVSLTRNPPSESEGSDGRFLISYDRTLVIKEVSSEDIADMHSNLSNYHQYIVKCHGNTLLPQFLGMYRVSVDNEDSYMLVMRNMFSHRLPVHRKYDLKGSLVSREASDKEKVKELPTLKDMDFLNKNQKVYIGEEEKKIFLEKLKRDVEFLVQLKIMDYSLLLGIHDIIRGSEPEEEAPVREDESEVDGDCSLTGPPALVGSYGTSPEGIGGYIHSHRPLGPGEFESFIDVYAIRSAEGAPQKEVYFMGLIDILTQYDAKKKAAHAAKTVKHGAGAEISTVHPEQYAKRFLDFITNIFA
Procedure: The binding of compounds to PI5P4Kγ in intact cells was assessed using an InCell Pulse thermal stabilisation assay (DiscoverX). […] The plate was then incubated for 60 min in the dark prior to luminescence reading using a Pherastar FSX plate reader (BMG Labtech).
(§1) Statistical analysis was performed using nonparametric testing in Prism 8 (GraphPad). Activity pIC50 values and in vivo binding pEC50 values were estimated using a 4-parameter fit (Dotmatics).

[2] = Chromatographic LogD (HPLC method); assay type: physicochemical; settings: pH 7.4, read-out: mchrom log D7.4
Procedure: 5-100% gradient of MeCN in 50mM NH4OAc in H 2O adjusted to pH 7.4. […]

Kinetic solubility = assay type: physicochemical; settings: PBS buffer, PBS pH 7.4
Procedure: Kinetic solubility analysis was performed by Charles River Laboratories Inc. (ADME-SOP-01). Compound in
DMSO at 10 mM was diluted to 200 µM in both DMSO and buffer (0.1 M PBS, pH 7.4, 2% DMSO final), and
an aliquot of the 200 µM DMSO solution was diluted to 10 µM, and all dilutions were equilibrated for 2 hours. […]
Compound 9 was purchased from Am binter (Amb16536894) and was determined by UPLC to have purity >95%.
All other compounds were synthesised as described below , and all tested compounds have purity >95% by UPLC

PI5P4Kγ-WT [3] = target: T2, PI5P4Kγ-WT; experiment: Thermal shift assay; settings: read-out: ΔTm PI5P4Kγ WT, thermal shift, compound 63 μM
PI5P4Kα-WT = target: T3, PI5P4Kα-WT (Homo sapiens, UniProt P48426); experiment: ADP-Glo inhibition assay; settings: ADP-Glo
T3 sequence (P48426 1-406): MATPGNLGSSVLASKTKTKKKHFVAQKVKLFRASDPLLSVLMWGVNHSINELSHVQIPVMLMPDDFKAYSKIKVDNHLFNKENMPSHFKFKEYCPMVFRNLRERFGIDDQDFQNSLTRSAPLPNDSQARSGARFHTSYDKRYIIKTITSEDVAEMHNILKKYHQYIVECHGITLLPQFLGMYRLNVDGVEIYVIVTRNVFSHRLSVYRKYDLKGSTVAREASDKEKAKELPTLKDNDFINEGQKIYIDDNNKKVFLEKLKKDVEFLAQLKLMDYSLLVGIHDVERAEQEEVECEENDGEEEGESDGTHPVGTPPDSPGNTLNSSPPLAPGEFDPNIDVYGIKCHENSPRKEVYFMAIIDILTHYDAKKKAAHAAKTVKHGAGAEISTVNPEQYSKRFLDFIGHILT
Excerpt: as §2

PI5P4Kγ+ = target: T4, PI5P4Kγ+ (Homo sapiens, UniProt Q8TBX8, D138G/D197E/E133P/E135D/E153T/E196G/G136S/G139A/N195G/S132L/S134N); experiment: ADP-Glo inhibition assay; assay type: biochemical; settings: for IC50: ADP-Glo; for PI5P4Kγ+ LE: ligand efficiency from PI5P4Kγ+ pIC50
T4 construct: GST (N, cleaved yes); made in house; host or cells: E. coli BL21(DE3), pGEX6P
T4 sequence (Q8TBX8 with tags, fused parts or gaps INS131LPN/S132D/E133S/S134Q/E135A/G136R/D138G/G139A/E153T/N195G/E196G/D197E): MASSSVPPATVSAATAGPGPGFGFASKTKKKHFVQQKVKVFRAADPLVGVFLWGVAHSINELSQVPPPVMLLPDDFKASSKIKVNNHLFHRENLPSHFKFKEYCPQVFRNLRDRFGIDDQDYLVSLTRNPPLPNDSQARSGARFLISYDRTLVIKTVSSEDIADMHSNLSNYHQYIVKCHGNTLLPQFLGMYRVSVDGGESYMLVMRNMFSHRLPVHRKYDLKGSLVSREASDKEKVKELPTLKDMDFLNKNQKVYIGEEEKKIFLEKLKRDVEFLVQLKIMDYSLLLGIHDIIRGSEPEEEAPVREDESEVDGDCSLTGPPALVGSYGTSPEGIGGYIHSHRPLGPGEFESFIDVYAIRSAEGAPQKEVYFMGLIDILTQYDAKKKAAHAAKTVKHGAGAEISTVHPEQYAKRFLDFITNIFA
Procedure: Recombinant mutant PI5P4Kγ+ was prepared essentially as described previously.[25] […] Cultures were induced with 0.4 mM IPTG and probe sonicated in the presence of protease inhibitors. The GST fusion protein of PI5P4Kγ+ was harvested by binding to glutathione sepharose beads (Cytiva) and cleaved in situ with 50U of PreScission protease (Cytiva) for 4 h at 4 °C. The cleaved protein was further purified by size-exclusion chromatography (AKTA Pure, Cytiva). The protein purity was confirmed by sodium dodecyl sulphate–polyacrylamide gel electrophoresis, and the concentration was determined by colorimetric assay (Bio-Rad).
as §1

IR = IR (Homo sapiens, UniProt P06213); experiment: Kinase panel, radiometric 33P filter binding; settings: read-out: % activity remaining
Chain of IR (P06213 28-1382): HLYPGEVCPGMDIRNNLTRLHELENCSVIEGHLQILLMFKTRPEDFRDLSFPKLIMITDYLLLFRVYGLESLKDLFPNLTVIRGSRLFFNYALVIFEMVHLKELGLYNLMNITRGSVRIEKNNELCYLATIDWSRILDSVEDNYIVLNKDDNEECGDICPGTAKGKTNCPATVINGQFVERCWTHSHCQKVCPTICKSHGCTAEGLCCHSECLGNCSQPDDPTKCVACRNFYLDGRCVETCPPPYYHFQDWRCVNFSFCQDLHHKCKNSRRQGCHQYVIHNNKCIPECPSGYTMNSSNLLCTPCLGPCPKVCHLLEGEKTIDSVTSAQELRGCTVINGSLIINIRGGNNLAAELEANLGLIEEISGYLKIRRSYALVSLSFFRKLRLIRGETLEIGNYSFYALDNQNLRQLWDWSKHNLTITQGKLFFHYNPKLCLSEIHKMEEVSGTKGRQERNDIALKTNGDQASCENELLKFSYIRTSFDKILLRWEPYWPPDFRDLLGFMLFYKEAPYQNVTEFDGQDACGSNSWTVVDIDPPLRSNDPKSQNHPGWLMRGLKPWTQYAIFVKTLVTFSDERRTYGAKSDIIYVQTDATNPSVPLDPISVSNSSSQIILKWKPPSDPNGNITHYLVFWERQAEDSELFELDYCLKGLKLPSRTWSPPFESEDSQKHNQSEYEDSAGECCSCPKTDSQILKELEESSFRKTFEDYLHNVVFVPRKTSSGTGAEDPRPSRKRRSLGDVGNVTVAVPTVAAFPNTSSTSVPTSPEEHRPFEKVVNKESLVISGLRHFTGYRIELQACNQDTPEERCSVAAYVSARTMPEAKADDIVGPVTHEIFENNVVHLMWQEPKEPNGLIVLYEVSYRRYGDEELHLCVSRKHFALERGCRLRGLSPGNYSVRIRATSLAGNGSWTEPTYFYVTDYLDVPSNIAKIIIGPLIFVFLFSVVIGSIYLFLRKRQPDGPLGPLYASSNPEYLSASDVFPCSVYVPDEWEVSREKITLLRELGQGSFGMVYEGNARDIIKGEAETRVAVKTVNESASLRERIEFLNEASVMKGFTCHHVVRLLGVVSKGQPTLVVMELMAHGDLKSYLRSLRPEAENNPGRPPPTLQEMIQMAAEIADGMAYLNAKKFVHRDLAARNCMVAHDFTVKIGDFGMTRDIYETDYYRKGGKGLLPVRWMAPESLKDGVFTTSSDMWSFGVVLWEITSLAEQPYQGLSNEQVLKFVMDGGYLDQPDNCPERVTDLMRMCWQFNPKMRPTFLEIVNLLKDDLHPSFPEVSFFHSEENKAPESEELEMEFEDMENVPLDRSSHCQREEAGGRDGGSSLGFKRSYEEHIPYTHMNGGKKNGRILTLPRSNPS
Excerpt: filter binding assay using 33P-g-ATPat the MRC PPU International Centre for Kinase Profiling, University of

| SMILES | PI5P4Kβ pIC50 (PI5P4Kβ-WT) | IC50 (PI5P4Kβ-WT; read-out: PI5P4Kβ IC50, new data) [nM] | IC50 (PI5P4Kγ-WT [1]; InCell Pulse, new data) [nM] | chromatographic logD [2] | solubility at 2 h (Kinetic solubility) [µM] | ΔTm at 63 µM (PI5P4Kγ-WT [3]) [°C] | PI5P4Kα pIC50 (PI5P4Kα-WT) | IC50 (PI5P4Kα-WT; read-out: PI5P4Kα IC50, new data) [nM] | IC50 (PI5P4Kγ+; new data, read-out: PI5P4Kγ+ IC50) [nM] | PI5P4Kγ+ LE (PI5P4Kγ+) | cellular target engagement with PI5P4Kγ-WT (PI5P4Kγ-WT [1]; InCell Pulse) | Target engagement PI5P4Kγ WT pIC50 (PI5P4Kγ-WT [1]; InCell Pulse in intact cells) | remaining activity at 10 µM (IR) [%] | IC50 (PI5P4Kγ+; mutant PI5P4Kγ+ construct, read-out: PI5P4Kγ+ pIC50 (converted)) [nM] |
| --- | --- | --- | --- | --- | --- | --- | --- | --- | --- | --- | --- | --- | --- | --- |
| FC(F)(F)c1ccccc1-c1nc(NCc2cccs2)c2ccccc2n1 [Compound 1, NIH-12848, reference compound] | <4.6 | > 25000 | 2500 | 6.3 | < 5 | 4.7 | <4.3 | > 50000 | 790 | 0.32 |  |  |  |  |
| CC(C)c1ccccc1-c1nc(NCc2ccccn2)c2c(ccn2C)n1 [Compound 40] | <4.6 |  |  | 4.5 | 7 (≈ 2.5 µg/mL) | 6.9 | <4.3 |  |  | 0.32 | submicromolar activity | 6.1 | 119 | 631 |
